Reference: patent publication US11975105B2 (EMPROS PHARMA AB, priority 2014, dated 2024)
Read-outs that look alike come from different tables or passages of the source.

Columns and labels:
[1] = cited from earlier work; for frequency of side effects, comparative: human, in vivo
[2] = pH dependent degradation when solubility from a powder was investigated at 37° C.; type: physicochemical; conditions: FIG. 1A-B
[3] = cited from earlier work
[4] = cited from earlier work; for fraction of the dose absorbed: oral administration
[5] = cited from earlier work; for additional weight loss relative to placebo: at one year

## CCCCCCCCCCCCCCCCOc1nc2ccc(C)cc2c(=O)o1 [cetilistat]
[1]
  frequency of side effects, comparative: much lower frequency of side effects

## CCCCCCCCCCCC(CC1OC(=O)[C@H]1CCCCCC)OC(=O)C(CC(C)C)NC=O (stereo in doubt) [orlistat, (S)—((S)-1-((2S,3S)-3-Hexyl-4-oxooxetan-2-yl)tridecan-2-yl) 2-formamido-4-methylpentanoate]
[2]
  pH dependent degradation: A similar tendency
[3]
  log P: 8.5
  solubility in water: practically insoluble in water
[3]; listed as Orlistat
  log P: 8.4
[4]; conventional oral dosage form
  plasma exposure: < 5 ng/mL
[4]
  fraction of the dose absorbed: < 3%
[5]
  additional weight loss relative to placebo: ~3%
[5]; best case scenario, placebo 6%
  relative weight loss: 10%
[1]; clinical trials
  patients complaining about GI side-effects (diarrhea, oily spottings, fecal urgency): ≥ 25%

## OCC(CO)N[C@H]1C[C@](O)(CO)[C@@H](O)[C@H](O)[C@H]1O [voglibose]
[4]
  fraction of the dose absorbed: negligibly absorbed
[1]
  frequency of side effects, comparative: lower frequency of GI side effects compared to acarbose

## OCCN1C[C@H](O)[C@@H](O)[C@H](O)[C@H]1CO [miglitol]
[4]
  fraction of the dose absorbed: 100%

## C[C@H]1CNCCc2ccc(Cl)cc21 [lorcaserin]
[5]
  additional weight loss relative to placebo: ~3%
[5]; human, in vivo
  decrease of body weight more than placebo: about 3.2 kg
  decrease of body weight more than placebo, of initial body weight: about 3.2%
